# Test results as given in publication PMC8657855 (International Journal of Molecular Sciences, 2021).
# How the values were obtained:
# Experiment in all cases: microbe, parasite or virus in culture
# [1] = tested on: Xanthomonas oryzae pv. oryzicola Xoc; conditions: for inhibition at 10 µg/mL: read-out: Inhibition (%) 10 (mg/L); for inhibition at 50 µg/mL: read-out: Inhibition (%) 50 (mg/L)
# [2] = tested on: Xanthomonas oryzae pv. oryzae Xoo; conditions: for inhibition at 10 µg/mL: read-out: Inhibition (%) 10 (mg/L); for inhibition at 50 µg/mL: read-out: Inhibition (%) 50 (mg/L)
# [3] = tested on: Xanthomonas oryzae pv. oryzicola Xoc; conditions: read-out: EC50 (mg/L) Xoc
# [4] = tested on: Xanthomonas oryzae pv. oryzae Xoo; conditions: read-out: EC50 (mg/L) Xoo
SMILES,inhibition at 10 µg/mL [1] [%],inhibition at 50 µg/mL [1] [%],inhibition at 10 µg/mL [2] [%],inhibition at 50 µg/mL [2] [%],EC50 [3] [mg/L],EC50 [4] [mg/L]
"CS(=O)(=O)c1nnc(CNC(=O)c2ccc(Cl)cc2)o1 [compound 24, 4-chloro-N-((5-(methylsulfonyl)-1,3,4-oxadiazol-2-yl)methyl)benzamide]",96.9 ± 0.4,97.8 ± 2.7,99.9 ± 0.1,99.6 ± 0.2,0.9 ± 0.04,0.4 ± 0.03
"CCS(=O)(=O)c1nnc(CNC(=O)C=Cc2cccs2)o1 [compound 2, N-((5-(ethylsulfonyl)-1,3,4-oxadiazol-2-yl)methyl)-3-(thiophen-2-yl)acrylamide]",96.9 ± 0.3,97.5 ± 0.8,85 ± 4.1,90.6 ± 8.6,3.41 ± 0.05,0.72 ± 0.07
"CS(=O)(=O)c1nnc(CNC(=O)c2ccc(F)cc2)o1 [compound 26, 4-fluoro-N-((5-(methylsulfonyl)-1,3,4-oxadiazol-2-yl)methyl)benzamide]",98.3 ± 1.6,99 ± 1,99.4 ± 0.2,99.1 ± 0.1,2.3 ± 0.06,0.61 ± 0.03
"CCS(=O)(=O)c1nnc(CNC(=O)c2ncc(C(F)(F)F)cc2Cl)o1 [compound 7, 3-chloro-N-((5-(ethylsulfonyl)-1,3,4-oxadiazol-2-yl)methyl)-5-(trifluoromethyl)picolinamide]",40.1 ± 1.3,99.6 ± 0.2,48.1 ± 0.8,99.8 ± 0.1,7.58 ± 0.27,7.45 ± 0.16
"CS(=O)(=O)c1nnc(CNC(=O)C=Cc2ccc(Cl)cc2)o1 [compound 14, 3-(4-chlorophenyl)-N-((5-(methylsulfonyl)-1,3,4-oxadiazol-2-yl)methyl)acrylamide]",98.8 ± 0.7,98.2 ± 1.1,97.6 ± 0.8,,0.61 ± 0.03,0.43 ± 0.06
"CCS(=O)(=O)c1nnc(CNC(=O)C=Cc2ccc(F)cc2)o1 [compound 11, N-((5-(ethylsulfonyl)-1,3,4-oxadiazol-2-yl)methyl)-3-(4-fluorophenyl)acrylamide]",50.6 ± 2.1,99 ± 1.3,98.8 ± 0.1,99.2 ± 0.4,10.8 ± 2.91,0.72 ± 0.05
"CS(=O)(=O)c1nnc(CNC(=O)c2c(F)cccc2F)o1 [compound 21, 2,6-difluoro-N-((5-(methylsulfonyl)-1,3,4-oxadiazol-2-yl)methyl)benzamide]",97.1 ± 2.3,98.4 ± 1.1,97.4 ± 0.3,96.3 ± 0.4,1.51 ± 0.02,0.65 ± 0.05
"CCS(=O)(=O)c1nnc(CNC(=O)C=Cc2ccc(C)cc2)o1 [compound 13, N-((5-(ethylsulfonyl)-1,3,4-oxadiazol-2-yl)methyl)-3-(p-tolyl)acrylamide]",98.1 ± 0.6,95.8 ± 1.2,99.5 ± 0.1,99.2 ± 0.2,0.88 ± 0.03,0.72 ± 0.07
"CCS(=O)(=O)c1nnc(CNC(=O)C=Cc2ccccc2)o1 [compound 9, N-((5-(ethylsulfonyl)-1,3,4-oxadiazol-2-yl)methyl)cinnamamide]",97.1 ± 1.6,98 ± 1.7,100,97.6 ± 1.4,0.78 ± 0.01,0.89 ± 0.12
"CS(=O)(=O)c1nnc(CNC(=O)c2ccc(Br)o2)o1 [compound 5, 5-bromo-N-((5-(methylsulfonyl)-1,3,4-oxadiazol-2-yl)methyl)furan-2-carbox amide]",99.3 ± 0.1,97.8 ± 2,96.3 ± 2.5,96.6 ± 0.4,2.59 ± 0.05,0.48 ± 0.01
"CC(=CC(=O)NCc1nnc(S(C)(=O)=O)o1)c1ccccc1 [compound 17, N-((5-(methylsulfonyl)-1,3,4-oxadiazol-2-yl)methyl)-3-phenylbut-2-enamide]",67.7 ± 0.9,94.7 ± 0.9,99.4 ± 0.5,99.7 ± 0.4,5.21 ± 0.11,0.54 ± 0.04
"CCS(=O)(=O)c1nnc(CNC(=O)C=Cc2ccc(Cl)cc2)o1 [compound 15, 3-(4-chlorophenyl)-N-((5-(ethylsulfonyl)-1,3,4-oxadiazol-2-yl)methyl)acrylamide]",97.9 ± 0.4,98.9 ± 0.3,98.1 ± 0.6,98.3 ± 0.2,1.45 ± 0.05,0.43 ± 0.04
"CS(=O)(=O)c1nnc(CNC(=O)C=Cc2cccs2)o1 [compound 1, N-((5-(methylsulfonyl)-1,3,4-oxadiazol-2-yl)methyl)-3-(thiophen-2-yl)acrylamide]",97.3 ± 1.8,98.3 ± 0.9,96.2 ± 1.5,97.6 ± 1.2,0.86 ± 0.08,0.68 ± 0.07
"Cc1ccc(C=CC(=O)NCc2nnc(S(C)(=O)=O)o2)cc1 [compound 12, N-((5-(methylsulfonyl)-1,3,4-oxadiazol-2-yl)methyl)-3-(p-tolyl)acrylamide]",96.9 ± 2.3,95.6 ± 2.1,99.5 ± 0.1,99.8 ± 0.2,0.64 ± 0.05,0.52 ± 0.04
"CCS(=O)(=O)c1nnc(CNC(=O)c2ccc(C)cc2C)o1 [compound 19, N-((5-(ethylsulfonyl)-1,3,4-oxadiazol-2-yl)methyl)-2,4-dimethylbenzamide]",98.2 ± 1,95.8 ± 0.8,97.2 ± 1.4,98.1 ± 0.8,1.69 ± 0.18,1.08 ± 0.11
"CS(=O)(=O)c1nnc(CNC(=O)C=Cc2ccc(F)cc2)o1 [compound 10, 3-(4-fluorophenyl)-N-((5-(methylsulfonyl)-1,3,4-oxadiazol-2-yl)methyl)acrylamide]",99 ± 0.8,95.6 ± 1,99 ± 0.3,99.5 ± 0.1,0.53 ± 0.01,0.36 ± 0.03
"S=c1[nH]nc(NCNc2n[nH]c(=S)s2)s1 [BT, Bismerthiazol]",7 ± 1.7,27 ± 1.7,2.5 ± 1.6,27.4 ± 5,105.9 ± 0.56,83.1 ± 8.07
"CS(=O)(=O)c1nnc(CNC(=O)c2ncc(C(F)(F)F)cc2Cl)o1 [compound 6, 3-chloro-N-((5-(methylsulfonyl)-1,3,4-oxadiazol-2-yl)methyl)-5-(trifluoromethyl)picolinamide]",95.5 ± 0.8,99.3 ± 0.2,94.8 ± 1.8,99.7 ± 0.2,3.31 ± 0.09,3.49 ± 0.07
"CCS(=O)(=O)c1nnc(CNC(=O)c2ccc(Cl)s2)o1 [compound 4, 5-chloro-N-((5-(ethylsulfonyl)-1,3,4-oxadiazol-2-yl)methyl)thiophene-2-carb oxamide]",96.9 ± 1.1,99 ± 0.2,98.3 ± 1,97.9 ± 1.5,0.83 ± 0.01,0.45 ± 0.04
"CS(=O)(=O)c1nnc(CNC(=O)C=Cc2ccccc2)o1 [compound 8, N-((5-(methylsulfonyl)-1,3,4-oxadiazol-2-yl)methyl)cinnamamide]",98.8 ± 0.7,92.3 ± 7.3,99.7 ± 0.3,98.9 ± 0.5,0.7 ± 0.01,0.73 ± 0.08
"CCS(=O)(=O)c1nnc(CNC(=O)c2ccc(Cl)cc2)o1 [compound 25, 4-chloro-N-((5-(ethylsulfonyl)-1,3,4-oxadiazol-2-yl)methyl)benzamide]",99.6 ± 0.3,98.8 ± 1,,99.2 ± 0.3,0.94 ± 0.09,0.82 ± 0.05
"CS(=O)(=O)c1nnc(CNC(=O)C=Cc2ccc(Cl)cc2Cl)o1 [compound 16, 3-(2,4-dichlorophenyl)-N-((5-(methylsulfonyl)-1,3,4-oxadiazol-2-yl)methyl)a crylamide]",99.2 ± 0.7,97.7 ± 0.7,98.9 ± 0.3,99 ± 0.4,1.15 ± 0.05,0.42 ± 0.05
